Values of other authors as cited in patent US7838668B2, “Method for crystallizing sucralose” (JK Sucralose Inc., priority 2006, dated 2010).

Conditions: relative to sucrose; background statement, no test described

In the case of `OC[C@H]1O[C@H](O[C@]2(CCl)O[C@H](CCl)[C@@H](O)[C@@H]2O)[C@H](O)[C@@H](O)[C@H]1Cl` [sucralose], the sweetness is listed as 600 times of sucrose.
